Earlier results in patent US7235236B2, “Polynucleotide encoding human adenylylcyclase VI and uses thereof for enhancing cardiac function” (priority 1995, dated 2007).

Test system: GRK
Settings: chronic reduction of beta1-AR activation

In the case of CC(C)NCC(O)COc1ccc(COCCOC(C)C)cc1 (stereo not shown) [bisoprolol], the “GRK activity after chronic treatment” value is listed as “downregulation of GRK activity”.
